{
  "source": "patent US9334475B2",
  "about": "“Method for inducing erythropoietin-producing cell” (Kyoto University, priority 2012, dated 2016)",
  "key": {"[1]": {"tested_on": "EPO-producing cells induced to differentiate from human iPS cells", "experiment": "EPO production-promoting ability in Step 2 of differentiation of human iPS cells", "type": "cell-based", "settings": "Step 2, compared with IGF-2 (FIG. 4)", "experimental": "(§1) Human iPS cells (201B6, 201B7, and 253G4) were obtained from Professor Yamanaka of Kyoto University, and cultured in accordance with a conventional method (Takahashi K, et al. Cell. 131: pp. 861 to 872). Using SNL cells (McMahon, A. P. and Bradley, A. (1990) Cell 62; pp. 1073 to 1085) as feeder cells, the iPS cells were cultured to 80 to 90% confluency on a 6 cm dish. The cells were then detached by adding a CTK solution and the feeder cells were removed, and 1 mL of Accutase™ was added to dissociate the iPS cells into single cells.\nSubsequently, the iPS cells were suspended in an RPMI medium containing 10 μM Y-27632, 2% B27, and penicillin/streptomycin and then seeded in a Matrigel-coated 24-well plate at 250,000 cells/well. After adding 100 ng/mL Activin and 1 μM CHIR99021, the volume of medium was adjusted to 0.5 mL/well, and the cells were cultured for six days (Step 1). At this time, on Day 2, 0.5 mM NaB was added to the medium (without medium exchange), and on Day 3, the medium was exchanged for a medium containing 100 ng/mL A ctivin, 1 μM CHIR99021, and 0.5 mM NaB, and on Day 5, the medium was exchanged for a medium containing 100 ng/mL Activin and 1 μM CHIR99021. […]\nIn Step 2, the cells were analyzed after 18 days of culture. […]"}, "[2]": {"tested_on": "EPO-producing cells induced to differentiate from human iPS cells", "experiment": "ELISA of extracellular EPO secretion by EPO-producing cells at various IGF-1 concentrations", "type": "cell-based", "experimental": "as §1\nSubsequently, the iPS cells were suspended in an RPMI medium containing 10 μM Y-27632, 2% B27, and penicillin/streptomycin and then seeded in a Matrigel-coated 24-well plate at 250,000 cells/well. After adding 100 ng/mL Activin and 1 μM CHIR99021, the volume of medium was adjusted to 0.5 mL/well, and the cells were cultured for six days (Step 1). At this time, on Day 2, 0.5 mM NaB was added to the medium (without medium exchange), and on Day 3, the medium was exchanged for a medium containing 100 ng/mL A ctivin, 1 μM CHIR99021, and 0.5 mM NaB, and on Day 5, the medium was exchanged for a medium containing 100 ng/mL Activin and 1 μM CHIR99021.\nAfter six days of culture, the medium was replaced by a DMEM medium containing 1% DMSO, 50 ng/mL IGF-1, 20% KSR, 2 mM L-glutamine, nonessential amino acid (NEAA), 100 μM β-ME (2-mercaptoethanol), 50 mU/L penicillin, and 50 μg/L streptomycin, and the cells were cultured for a certain period of days (Step 2). During cell culture, the medium was exchanged every other day.\nSubsequently, ELISA was performed to study whether the EPO protein expressed was secreted out of the cells. As a result, EPO protein was confirmed outside the cells. […] Further, as a result of studying the amount of IGF-1 added and the number of days of culture, the highest amount of EPO secretion was observed when the cells were cultured for 10 days at 50 ng/mL (FIG. 6). […]"}},
  "data": [
    {"substance": "IGF-1: IGF family gene product used as a growth factor in the Step 2 medium", "values": [
      {"measurement": "EPO production-promoting ability", "setting": "[1]", "value": "promote EPO production more potently than IGF-2"},
      {"measurement": "days of culture in Step 2 giving the highest amount of EPO secretion", "setting": "[2]; IGF-1 at 50 ng/mL (FIG. 6)", "value": 10, "unit": "days"},
      {"measurement": "change in EPO secretion over time", "setting": "[2]; IGF-1 at 100 ng/mL, Step 2 (FIG. 6)", "value": "an increasing trend of EPO secretion was confirmed up to Day 12"},
      {"measurement": "concentration of IGF-1 added that increased the amount of extracellular secretion of EPO", "setting": "[2]; Step 2, ELISA, Day 8 cells (FIG. 5)", "value": "≥ 1", "unit": "ng/mL"}
    ]}
  ]
}
